These results are taken from ChEMBL document CHEMBL6182861, “Structural modification of heptamethine indocyanine dyes with improved aqueous solubility and stability for photothermal therapy” (Eur J Med Chem, 2025).

Structures are written as SMILES. Activity calls are given as the source filed them. No cut-off for these calls is given here.

The test system of one data set is HepG2. Description: Induction of ROS generation in human HepG2 cells at 3.12 uM incubated for 4 hrs followed by exposure to laser irradiation of 808 nm for 2 mins by flow cytometry. In kind it is functional, cell-based. The settings on record: time 242.0 min. For orientation: A flow cytometer gives signals particle by particle.
For the compound `CN1/C(=C/C=C/C=C/C=C/C2=[N+](C)c3ccccc3C2(C)C)C(C)(C)c2ccccc21.[I-]`, the result was Active.

Tested on in the next data set: not listed separately
Description: Photosensitizing property of compound assessed as generation of singlet-state oxygen by ESR spectrometry. Type of data set: functional.
Conditions: not given
With `CN1/C(=C/C=C/C=C/C=C/C2=[N+](C)c3ccccc3C2(C)C)C(C)(C)c2ccccc21.[I-]`, the result was Active.

The next data set concerns 4T1. Description: Induction of ROS generation in mouse 4T1 cells at 3.12 uM incubated for 4 hrs followed by exposure to laser irradiation of 808 nm for 2 mins by DCFH-DA probe based CLSM. Type of data set: functional, cell-based. The note with it: time 242.0 min.
In the case of `CN1/C(=C/C=C/C=C/C=C/C2=[N+](C)c3ccccc3C2(C)C)C(C)(C)c2ccccc21.[I-]`, the outcome was Active.

A further data set relates to 4T1. Description: Photothermal cytotoxicity against mouse 4T1 cells up to 25 uM preincubated for 4 hrs followed by exposure to laser irradiation of 808 nm for 2 mins and subsequent incubation for 20 hrs by MTT assay. In kind it is functional, cell-based.
Conditions: not given
For orientation: Tetrazolium assays rely on reduction of a dye to a coloured formazan, in cell work by metabolically active cells.
In the case of `CN1/C(=C/C=C/C=C/C=C/C2=[N+](C)c3ccccc3C2(C)C)C(C)(C)c2ccccc21.[I-]`, the outcome was inactive.

Tested on in another data set: not listed separately
Description: Drug uptake in human HepG2 cells assessed as increase in fluorescence intensity at 3.12 uM incubated for 4 hrs by CLSM. Type of data set: ADME, cell-based. The settings on record: hepg2, 4 h.
For the compound `CN1/C(=C/C=C/C=C/C=C/C2=[N+](C)c3ccccc3C2(C)C)C(C)(C)c2ccccc21.[I-]`, the Drug uptake result was “Active”.

Another data set concerns Mitochondrial membrane. Description: Inhibition of mitochondrial membrane potential in mouse 4T1 cells at 3.12 uM incubated for 24 hrs by Rh123 probe based CLSM. Type of data set: cell membranes.
Conditions: not given
For the compound `CN1/C(=C/C=C/C=C/C=C/C2=[N+](C)c3ccccc3C2(C)C)C(C)(C)c2ccccc21.[I-]`, the inhibition result is recorded as “Active; Certain Degree Of Inhibition Was Observed”.

For the next data set, the system named is Mitochondrial membrane. Description: Inhibition of mitochondrial membrane potential in human HepG2 cells at 3.12 uM incubated for 24 hrs by Rh123 probe based CLSM.
Conditions: not given
Type of data set: cell membranes.
Consider `CN1/C(=C/C=C/C=C/C=C/C2=[N+](C)c3ccccc3C2(C)C)C(C)(C)c2ccccc21.[I-]`, for which the inhibition result is “Active; Certain Degree Of Inhibition Was Observed”.

Another data set deals with Mitochondrial membrane. Description: Inhibition of mitochondrial membrane potential in human HepG2 cells at 3.12 uM incubated for 24 hrs by flow cytometry. Type of data set: cell membranes.
Conditions: not given
As for `CN1/C(=C/C=C/C=C/C=C/C2=[N+](C)c3ccccc3C2(C)C)C(C)(C)c2ccccc21.[I-]`, the inhibition entry is recorded as “Active; Certain Degree Of Inhibition Was Observed”.

In another data set the test system is HepG2. Description: Induction of ROS generation in human HepG2 cells at 3.12 uM incubated for 4 hrs followed by exposure to laser irradiation of 808 nm for 2 mins by DCFH-DA probe based CLSM. The note with it: time 242.0 min. In kind it is functional, cell-based.
As for `CN1/C(=C/C=C/C=C/C=C/C2=[N+](C)c3ccccc3C2(C)C)C(C)(C)c2ccccc21.[I-]`, the result was Active.

The test system of a further data set is Mitochondrial membrane. Description: Inhibition of mitochondrial membrane potential in mouse 4T1 cells at 3.12 uM preincubated for 4 hrs followed by exposure to laser irradiation of 808 nm for 2 mins and subsequent incubation for 20 hrs by Rh123 probe based CLSM. Type of data set: cell membranes. The settings on record: time 1442.0 min.
`CN1/C(=C/C=C/C=C/C=C/C2=[N+](C)c3ccccc3C2(C)C)C(C)(C)c2ccccc21.[I-]`: the inhibition result is given as “Active; Significant Inhibition Was Observed”.

A further data set deals with HepG2. Description: Photothermal cytotoxicity against human HepG2 cells up to 25 uM preincubated for 4 hrs followed by exposure to laser irradiation of 808 nm for 2 mins and subsequent incubation for 20 hrs by MTT assay. In kind it is functional, cell-based. The note with it: time 1442.0 min.
Take `CN1/C(=C/C=C/C=C/C=C/C2=[N+](C)c3ccccc3C2(C)C)C(C)(C)c2ccccc21.[I-]`: the outcome was inactive.

Tested on in another data set: not listed separately
Description: Drug uptake in human HepG2 cells assessed as increase in fluorescence intensity at 3.12 uM incubated for 4 hrs by flow cytometry. Type of data set: ADME, cell-based. The settings on record: hepg2, 4 h.
Turning to `CN1/C(=C/C=C/C=C/C=C/C2=[N+](C)c3ccccc3C2(C)C)C(C)(C)c2ccccc21.[I-]`, the Drug uptake entry is recorded as “Active”.

A further data set concerns Mitochondrial membrane. Description: Inhibition of mitochondrial membrane potential in human HepG2 cells at 3.12 uM preincubated for 4 hrs followed by exposure to laser irradiation of 808 nm for 2 mins and subsequent incubation for 20 hrs by Rh123 probe based CLSM. In kind it is cell membranes. The note with it: time 1442.0 min.
`CN1/C(=C/C=C/C=C/C=C/C2=[N+](C)c3ccccc3C2(C)C)C(C)(C)c2ccccc21.[I-]`: the inhibition result is on record as “Active; Significant Inhibition Was Observed”.

Tested on in the next data set: not listed separately
Description: Drug uptake in mouse 4T1 cells assessed as increase in fluorescence intensity at 3.12 uM incubated for 4 hrs by flow cytometry. Type of data set: ADME, cell-based. The settings on record: 4t1, 4 h.
With `CN1/C(=C/C=C/C=C/C=C/C2=[N+](C)c3ccccc3C2(C)C)C(C)(C)c2ccccc21.[I-]`, the Drug uptake entry is listed as “Active”.

The next data set has as its system Mitochondrial membrane. Description: Inhibition of mitochondrial membrane potential in mouse 4T1 cells at 3.12 uM preincubated for 4 hrs followed by exposure to laser irradiation of 808 nm for 2 mins and subsequent incubation for 20 hrs by flow cytometry. In kind it is cell membranes. The note with it: time 1442.0 min.
With `CN1/C(=C/C=C/C=C/C=C/C2=[N+](C)c3ccccc3C2(C)C)C(C)(C)c2ccccc21.[I-]`, the inhibition entry is on record as “Active; Significant Inhibition Was Observed”.

For a further data set, the system named is HepG2. Description: Induction of apoptosis in human HepG2 cells at 3.12 uM incubated for 4 hrs followed by exposure to laser irradiation of 808 nm for 2 mins by Annexin V-FITC/PI staining based flow cytometry. The note with it: time 242.0 min. In kind it is functional, cell-based.
In the case of `CN1/C(=C/C=C/C=C/C=C/C2=[N+](C)c3ccccc3C2(C)C)C(C)(C)c2ccccc21.[I-]`, the outcome was Active.

Tested on in another data set: not listed separately
Description: Drug uptake in mouse 4T1 cells assessed as increase in fluorescence intensity at 3.12 uM incubated for 4 hrs by CLSM. The note with it: 4t1, 4 h. In kind it is ADME, cell-based.
For the compound `CN1/C(=C/C=C/C=C/C=C/C2=[N+](C)c3ccccc3C2(C)C)C(C)(C)c2ccccc21.[I-]`, the Drug uptake result is recorded as “Active”.

Tested on in the next data set: not listed separately
Description: Aqueous solubility of compound by absorbance based assay. Type of data set: physicochemical. The note with it: buffer.
`CN1/C(=C/C=C/C=C/C=C/C2=[N+](C)c3ccccc3C2(C)C)C(C)(C)c2ccccc21.[I-]`: the solubility result was “Insoluble”.

Another data set has as its system Mitochondrial membrane. Description: Inhibition of mitochondrial membrane potential in human HepG2 cells at 3.12 uM preincubated for 4 hrs followed by exposure to laser irradiation of 808 nm for 2 mins and subsequent incubation for 20 hrs by flow cytometry. In kind it is cell membranes. The settings on record: time 1442.0 min.
As for `CN1/C(=C/C=C/C=C/C=C/C2=[N+](C)c3ccccc3C2(C)C)C(C)(C)c2ccccc21.[I-]`, the inhibition entry is given as “Active; Significant Inhibition Was Observed”.

The next data set has as its system Mitochondrial membrane. Description: Inhibition of mitochondrial membrane potential in mouse 4T1 cells at 3.12 uM incubated for 24 hrs by flow cytometry. In kind it is cell membranes.
Conditions: not given
Take `CN1/C(=C/C=C/C=C/C=C/C2=[N+](C)c3ccccc3C2(C)C)C(C)(C)c2ccccc21.[I-]`: the inhibition result is given as “Active; Certain Degree Of Inhibition Was Observed”.

Tested on in another data set: not listed separately
Description: Photothermal stability of compound at 60 degreeC at 20 uM exposed to laser irradiation of 808 nm for 2.5 mins. In kind it is physicochemical.
Conditions: not given
Take `CN1/C(=C/C=C/C=C/C=C/C2=[N+](C)c3ccccc3C2(C)C)C(C)(C)c2ccccc21.[I-]`: the Stability entry is “Unstable”.

For another data set, the system named is 4T1. Description: Induction of apoptosis in mouse 4T1 cells at 3.12 uM incubated for 4 hrs followed by exposure to laser irradiation of 808 nm for 2 mins by Annexin V-FITC/PI staining based flow cytometry. Type of data set: functional, cell-based. The note with it: time 242.0 min.
For the compound `CN1/C(=C/C=C/C=C/C=C/C2=[N+](C)c3ccccc3C2(C)C)C(C)(C)c2ccccc21.[I-]`, the result was Active.

Tested on in a further data set: not listed separately
Description: Photosensitizing property of compound assessed as generation of singlet-state oxygen at 10 uM exposed to laser irradiation of 808 nm for 2 mins by SOSG probe based analysis. Type of data set: functional.
Conditions: not given
On to `CN1/C(=C/C=C/C=C/C=C/C2=[N+](C)c3ccccc3C2(C)C)C(C)(C)c2ccccc21.[I-]`, for which the outcome was Active.

The next data set relates to 4T1. Description: Induction of ROS generation in mouse 4T1 cells at 3.12 uM incubated for 4 hrs followed by exposure to laser irradiation of 808 nm for 2 mins by flow cytometry. In kind it is functional, cell-based. The settings on record: time 242.0 min.
On to `CN1/C(=C/C=C/C=C/C=C/C2=[N+](C)c3ccccc3C2(C)C)C(C)(C)c2ccccc21.[I-]`, for which the result was Active.
